Measured values published in ChEMBL document CHEMBL1135441, “Elevation of ligand binding to muscarinic M(2) acetylcholine receptors by bis(ammonio)alkane-type allosteric modulators” (J Med Chem, 2002).

Biological target: Muscarinic acetylcholine receptor M2 (Sus scrofa) (UniProt P06199)
Assay: Binding of [3H]N-methylscopolamine at porcine heart Muscarinic acetylcholine receptor M2 and negative log of the equilibrium dissociation constant was reported

Chain of Muscarinic acetylcholine receptor M2 (Sus scrofa) (P06199 whole entry, looked up): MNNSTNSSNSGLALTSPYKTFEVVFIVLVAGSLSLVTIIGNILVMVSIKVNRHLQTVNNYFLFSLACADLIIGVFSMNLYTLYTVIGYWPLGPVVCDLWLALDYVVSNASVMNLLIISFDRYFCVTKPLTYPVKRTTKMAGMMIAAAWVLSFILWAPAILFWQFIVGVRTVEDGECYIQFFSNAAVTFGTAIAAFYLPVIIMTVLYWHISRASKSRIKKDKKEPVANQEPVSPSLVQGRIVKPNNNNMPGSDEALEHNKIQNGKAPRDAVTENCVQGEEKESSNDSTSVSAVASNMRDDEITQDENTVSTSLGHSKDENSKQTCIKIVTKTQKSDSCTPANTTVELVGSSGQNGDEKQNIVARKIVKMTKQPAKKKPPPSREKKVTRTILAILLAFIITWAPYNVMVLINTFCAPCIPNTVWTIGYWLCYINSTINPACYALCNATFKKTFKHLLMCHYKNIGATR

| Structure (SMILES) | pKA |
| --- | --- |
| Cc1ccc2c(c1)C(=O)N(CCC[N+](C)(C)CCCCCC[N+](C)(C)CCCN1C(=O)c3ccccc3C1=O)C2=O | 6.89 |
| C[N+](C)(CCCCCC[N+](C)(C)CCCN1C(=O)c2ccccc2C1=O)CCCN1C(=O)c2ccccc2C1=O | 6.53 |
| Cc1ccc2c(c1)C(=O)N(CC(C)(C)C[N+](C)(C)CCCCCC[N+](C)(C)CC(C)(C)CN1C(=O)c3ccc(C)cc3C1=O)C2=O | 7.21 |
| Cc1ccc2c(c1)C(=O)N(CCC[N+](C)(C)CCCCCC[N+](C)(C)CCCN1C(=O)c3ccc(C)cc3C1=O)C2=O | 7.08 |
| Cc1ccc2c(c1)C(=O)N(CCC[N+](C)(C)CCCCCC[N+](C)(C)CC(C)(C)CN1C(=O)c3ccc(C)cc3C1=O)C2=O | 7.41 |
| CC(C)(CN1C(=O)c2ccccc2C1=O)C[N+](C)(C)CCCCCC[N+](C)(C)CC(C)(C)CN1C(=O)c2ccccc2C1=O | 7.08 |

The next lines start with the values.

| pKA | Structure (SMILES) |
| --- | --- |
| 6.9 | CC(C)(CN1C(=O)c2ccccc2C1=O)C[N+](C)(C)CCCCCC[N+](C)(C)CCCN1C(=O)c2ccccc2C1=O |
| 7.26 | Cc1ccc2c(c1)C(=O)N(CC(C)(C)C[N+](C)(C)CCCCCC[N+](C)(C)CCCN1C(=O)c3ccccc3C1=O)C2=O |
| 7.2 | Cc1ccc2c(c1)C(=O)N(CCC[N+](C)(C)CCCCCC[N+](C)(C)CC(C)(C)CN1C(=O)c3ccccc3C1=O)C2=O |
